For assay [1], the system named is allogeneic (C57BL/6J→BALB/c) BMT recipients. Nature of the assay: MHC-mismatched allo-BMT GVHD model with intragastric butyrate. The assay is classed as in vivo, mouse. As to the method: BMTs were performed as previously described (Reddy, P. et al. A crucial role for antigen-presenting cells and alloantigen expression in graft-versus-leukemia responses. Nat. Med. 11, 1244-1249 (2005); 15). Briefly, syngeneic (BALB/c→BALC/c or C57BL/6J→C57BL/6J) and allogeneic (C57BL/6J→BALB/c or C3H.sw→C57BL/6J) recipients received lethal irradiation. On day −1, BALB/c recipients received a total of 800 cGy of irradiation (split dose separated by 3 hours) and B6 animals received a single dose of 1000 cGy. Donor splenic CD90.2+ T cells were magnetically separated using an autoMACs (Miltenyi Biotec; Bergisch Gladbach, Germany) and 0.5×10^6 to 2.5×10^6 T cells were transferred to BALB/c and C57BL/6J recipients. 5×10^6 donor whole or TCD bone marrow was transferred to all recipients. Survival was monitored daily and the recipient body weight and GVHD clinical scores were determined weekly, as described previously42. Histopathologic analysis of the gastrointestinal (GI) tract was performed as described (Reddy, P. et al. A crucial role for antigen-presenting cells and alloantigen expression in graft-versus-leukemia responses. Nat. Med. 11, 1244-1249 (2005)). Animals received vehicle (sterile PBS, 0.0004 g Na+ per dose) or sodium butyrate (10 mg/kg, 0.00004 g Na+ per dose) by flexible 20G-1.5″ intragastric gavage needle daily for 1 week, then every other day thereafter.
Systemic administration of HDACi decreases acute GVHD (Reddy, P. et al. Histone deacetylase inhibitor suberoylanilide hydroxamic acid reduces acute graft-versus-host disease and preserves graft-versus-leukemia effect. Proc Natl Acad Sci USA 101, 3921-3926 (2004); Reddy, P. et al. Histone deacetylase inhibition modulates indoleamine 2,3-dioxygenasedependent DC functions and regulates experimental graft-versus-host disease in mice. J. Clin. Invest. 118, 2562-2573 (2008); Sun, Y. et al. Cutting edge: Negative regulation of dendritic cells through acetylation of the nonhistone protein STAT-3. J Immunol 182, 5899-5903 (2009)). It was therefore determined if increasing local levels of endogenous HDACi, butyrate, would impact GVHD severity. Again using the C57BL/6J into Balb/c model, vehicle control or butyrate was administered via daily intragastric gavage for one week, followed by administration every other day for the remainder of the experiment. […] Next, to further evaluate the magnitude of the butyrate-induced protective effect, GVHD mortality was determined utilizing the MHC disparate B6 into BALB/c model.

Assay [2] deals with CD326+ intestinal epithelial cells (IECs). Kind of assay: Western blot / qPCR of CD326+ IECs isolated from BMT recipients. In kind it is in vivo, mouse. As to the method: CD326+ purified IECs were harvested from animals that received syngeneic (BALB/c→BALB/c) or allogeneic (C57BL/6J→BALB/c) BMT. Whole cell lysates were next obtained and protein concentrations determined with Pierce BCA Protein Assay (Thermo Scientific). Equal amounts of protein (20 μg) were separated by SDS-PAGE gel electrophoresis (120V, 1.5 h) and subsequently transferred to polyvinylidene difluoride (PVDF) membrane using a Bio-Rad semi-dry transfer cell (Hercules, Calif.) (20V, lh). The following antibodies were used to analyze the membranes with dilutions in accordance with the manufacturers specification sheet: α-tubulin (Cell Signaling, clone 11H10), Acetyl histone H4 (Lys5/8/12/16) (EMD Millipore, clone 3HH-4C10), SLC5A8 (abcam), GPR43 (abcam), Occludin (abcam, clone EPR8208), JAM (abcam, clone EP1042Y), and Claudin 5 (abcam). Secondary anti-rabbit antibody conjugated to HRP (Jackson ImmunoResearch, Cat No. 111-035-003) was used to detect primary antibodies, where needed. Densitometric analysis was performed using ImageJ software (National Institutes of Health; Bethesda, […].).
mRNA was isolated from samples using RNeasy kit following manufacturers instructions (Qiagen; Venlo, Netherlands). Using 1 μg of each mRNA template, cDNA was synthesized using SuperScript VILO (Invitrogen; Carlsbad, Calif.). qPCR primers were designed for murine targets. All primers were verified for the production of a single specific PCR product using a melting curve program and are shown below in Table 2.
It was next determined if the reduced amount of butyrate in IECs could be restored in vivo and further, whether this would have a functional impact on histone acetylation. In addition to utilizing transporters, butyrate can also diffuse across the mucosal barrier into IECs when present in high concentrations (Ganapathy, V., Thangaraju, M., Prasad, P. D., Martin, P. M. & Singh, N. Transporters and receptors for short-chain fatty acids as the molecular link between colonic bacteria and the host. Curr Opin Pharmacol 13, 869-874 (2013); Charney, A. N., Micic, L. & Egnor, R. W. Nonionic diffusion of short-chain fatty acids across rat colon. Am. J Physiol. 274, G518-24 (1998)). Therefore, it was hypothesized that administration of high amounts of butyrate locally would restore histone acetylation of IECs, in vivo. To test this, C57BL/6J cells were transferred to Balb/c mice and administered vehicle or butyrate via daily intragastric gavage.
To determine if these are involved in in vivo protection from GVHD, the expression of pro- and anti-apoptotic proteins as well as junctional proteins in IECs isolated 21 days following allo-BMT was determined. […] Overall, the results identify several ways in which butyrate can directly enhance epithelial cell function ranging from protection from irradiation and allo-T cell mediated apoptosis to proliferation and junctional protein expression, both in vitro and in vivo.
For orientation: In western blotting, separated proteins are transferred to a membrane and probed.

The mark [3] stands for this setting: intragastric butyrate daily 1 week then every other day, vs vehicle.
[4] abbreviates: 21 days following allo-BMT, intragastric butyrate.

In the case of `CCCC(=O)[O-].[Na+]` [butyrate, sodium butyrate], the “histological scores in the intestines” value in assay [1] (21 days following BMT, major MHC mismatch model) is “decreased histological scores”. Further, the “GVHD mortality / survival” value in assay [1] (B6 into BALB/c, higher doses of T cells) is recorded as “significant GVHD survival benefit”. Besides, in assay [1] (setting [3]), the GVHD clinical scores entry is on record as “decreased”, the survival result is “increased survival” and the weight loss result is on record as “decreased weight loss”. The “gene expression of junctional proteins in IECs” value in assay [2] (21 days following allo-BMT, butyrate treated animals) is listed as “similarly increased”. In addition, in assay [2] (setting [4]), the “BCL-B (Bcl2110) expression in IECs” value is reported as “increased”, the “transcripts of Bak1 in IECs” value is “significantly decreased” and the “transcripts of Bax in IECs” value is given as “significantly decreased”. Further, in assay [2] (C57BL/6J→Balb/c, daily intragastric butyrate for 21 days, vs untreated allo-BMT recipients), the “acetylation of histone H4 in IECs” value is listed as “significantly restored”. In assay [2] (daily intragastric gavage of butyrate), the “butyrate transporter SLC5A8 in IECs” value was “increase”. For the same molecule, in assay [2] (recipients of allo-BMT treated with intragastric butyrate), the “protein amounts of Occludin, JAM and Claudin 5 (immunoblot)” value was “increased junctional proteins”.

Source of the values: patent US11260083B2, “Compositions and methods for treating and preventing graft versus host disease” (The Regents of the University of Michigan, priority 2016, dated 2022).
